Source: patent publication US20060069132A1, “Azolecarboxamide herbicides” (priority 2004, published 2006)
Where two headings read alike, the source gives them in different places.

Experiments:
barnyardgrass [1] = assay: Test B pre-/postemergence herbicide test; type: in vivo, Echinochloa crus-galli; conditions: for Barnyardgrass plant response rating: postemergence
In short: (§1)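 Test chemicals in a non-phytotoxic solvent mixture with surfactant were applied preemergence to seeded species and postemergence to plants 2-18 cm tall (1- to 4-leaf stage); rice and barnyardgrass were also tested in a flooded paddy at the 2-leaf stage. Visual rating versus controls after 13-15 days in greenhouse, scale 0 (no effect) to 100 (complete control).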

Surinam grass = assay: Test B pre-/postemergence herbicide test; type: in vivo, Urochloa decumbens; conditions: for pest or weed control at 125 g/ha / pest or weed control at 500 g/ha: Urochloa decumbens
In short: as §1

cocklebur = assay: Test B pre-/postemergence herbicide test; type: in vivo, Xanthium strumarium; conditions: for pest or weed control at 125 g/ha / pest or weed control at 500 g/ha: Xanthium strumarium
In short: as §1

giant foxtail = assay: Test B pre-/postemergence herbicide test; type: in vivo, Setaria faberi; conditions: for pest or weed control at 125 g/ha / pest or weed control at 500 g/ha: Setaria faberi, 336 h
In short: as §1

lambsquarters = assay: Test B pre-/postemergence herbicide test; type: in vivo, Chenopodium album; conditions: for pest or weed control at 125 g/ha / pest or weed control at 500 g/ha: Chenopodium album, 336 h
In short: as §1

morningglory = assay: Test B pre-/postemergence herbicide test; type: in vivo, Ipomoea coccinea; conditions: for pest or weed control at 125 g/ha / pest or weed control at 500 g/ha: Ipomoea, 336 h
In short: as §1

pigweed = assay: Test B pre-/postemergence herbicide test; type: in vivo, Amaranthus retroflexus; conditions: for pest or weed control at 125 g/ha / pest or weed control at 500 g/ha: Amaranthus retroflexus, 336 h
In short: as §1

velvetleaf = assay: Test B pre-/postemergence herbicide test; type: in vivo, Abutilon theophrasti; conditions: for pest or weed control at 125 g/ha / pest or weed control at 500 g/ha: Abutilon theophrasti, 336 h
In short: as §1

blackgrass = assay: Test B postemergence herbicide test; type: in vivo, Alopecurus myosuroides; conditions: postemergence
In short: (§2)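 Paddy species grown to the 2-leaf stage under flooding; blackgrass sprayed postemergence at 2–18 cm (1- to 4-leaf stage). Plants kept in a greenhouse for 13 to 15 days, then visually rated against controls on 0 (no effect) to 100 (complete control).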

wheat = assay: Test B postemergence herbicide test; type: in vivo, Triticum aestivum; design: key to Wheat plant response rating: 0 = no effect, 100 = complete control; conditions: postemergence
In short: (§3)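 Read-out: visual comparison with controls, scored 0 to 100, where 100 means complete control and 0 no effect. Formulated chemicals were applied postemergence to plants 2–18 cm tall (1- to 4-leaf), or to flooded-paddy plants at the 2-leaf stage, then held 13 to 15 days under glass.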

wild oat = assay: Test B postemergence herbicide test; type: in vivo, Avena fatua; conditions: postemergence
In short: as §3

rice = assay: Test B flooded paddy test; type: in vivo, Oryza sativa; conditions: 1000 g ai/ha, scale 0 to 100 (0 no effect, 100 complete control)
In short: as §2

[2] = tested on: small flower umbrella sedge; assay: Test B flooded paddy test; type: in vivo, Cyperus difformis; conditions: 1000 g ai/ha, scale 0 to 100 (0 no effect, 100 complete control)
In short: as §2

ducksalad = assay: Test B flooded paddy test; type: in vivo, Heteranthera limosa; conditions: 1000 g ai/ha, scale 0 to 100 (0 no effect, 100 complete control)
In short: as §2

barnyardgrass [3] = assay: Test B flooded paddy test; type: in vivo, Echinochloa crus-galli; conditions: 1000 g ai/ha, scale 0 to 100 (0 no effect, 100 complete control)
In short: as §2

[4] = 125 g ai/ha, 0 = no effect, 100 = complete control, preemergence
[5] = 500 g ai/ha, visual rating, 0 = no effect, 100 = complete control, preemergence
[6] = 125 g ai/ha, visual rating, scale 0 (no effect) to 100 (complete control)
[7] = 500 g ai/ha, scale 0 to 100, 0 is no effect, 100 is complete control
[8] = postemergence, 125 g ai/ha, visual rating, scale 0 (no effect) to 100 (complete control)
[9] = postemergence, 500 g ai/ha, scale 0 to 100, 0 is no effect, 100 is complete control

CCn1nc(C(C)(C)C)cc1C(=O)Nc1ccc(F)c(C(=O)N(C)C)c1 [Compound 236, N-[3-[(dimethylamino)carbonyl]-4-fluorophenyl]-3-(1,1-dimethylethyl)-1-ethyl-1H-pyrazole-5-carboxamide]
pest or weed control at 125 g/ha (barnyardgrass [1]; Echinochloa crus-galli, pre-emergence, 125 g ai/ha, 0 = no effect, 100 = complete control, read-out: Barnyardgrass plant response rating (0 to 100 scale)): 50%
pest or weed control at 500 g/ha (barnyardgrass [1]; Echinochloa crus-galli, pre-emergence, 500 g ai/ha, visual rating, 0 = no effect, 100 = complete control, read-out: Plant response rating, Barnyardgrass): 90%
pest or weed control at 125 g/ha (Surinam grass; post-emergence, postemergence, 125 g ai/ha, visual rating, scale 0 (no effect) to 100 (complete control), read-out: Surinam Grass plant response rating): 0%
pest or weed control at 500 g/ha (Surinam grass; post-emergence, postemergence, 500 g ai/ha, visual rating, scale 0 (no effect) to 100 (complete control), read-out: Surinam Grass plant response rating): 20%
pest or weed control at 125 g/ha (Surinam grass; pre-emergence, 125 g ai/ha, 0 = no effect, 100 = complete control, read-out: Surinam Grass plant response rating (0 to 100 scale)): 20%
pest or weed control at 500 g/ha (Surinam grass; pre-emergence, 500 g ai/ha, visual rating, 0 = no effect, 100 = complete control, read-out: Plant response rating, Surinam Grass): 60%
pest or weed control at 125 g/ha (cocklebur; post-emergence, postemergence, 125 g ai/ha, visual rating, scale 0 (no effect) to 100 (complete control), read-out: Cocklebur plant response rating): 20%
pest or weed control at 500 g/ha (cocklebur; post-emergence, postemergence, 500 g ai/ha, visual rating, scale 0 (no effect) to 100 (complete control), read-out: Cocklebur plant response rating): 40%
pest or weed control at 125 g/ha (cocklebur; pre-emergence, 125 g ai/ha, 0 = no effect, 100 = complete control, read-out: Cocklebur plant response rating (0 to 100 scale)): 0%
pest or weed control at 500 g/ha (cocklebur; pre-emergence, 500 g ai/ha, visual rating, 0 = no effect, 100 = complete control, read-out: Plant response rating, Cocklebur): 20%
pest or weed control at 125 g/ha (giant foxtail; post-emergence, postemergence, 125 g ai/ha, visual rating, scale 0 (no effect) to 100 (complete control), read-out: Foxtail, Giant plant response rating): 10%
pest or weed control at 500 g/ha (giant foxtail; post-emergence, postemergence, 500 g ai/ha, visual rating, scale 0 (no effect) to 100 (complete control), read-out: Foxtail, Giant plant response rating): 40%
pest or weed control at 125 g/ha (giant foxtail; pre-emergence, 125 g ai/ha, 0 = no effect, 100 = complete control, read-out: Foxtail, Giant plant response rating (0 to 100 scale)): 10%
pest or weed control at 500 g/ha (giant foxtail; pre-emergence, 500 g ai/ha, visual rating, 0 = no effect, 100 = complete control, read-out: Plant response rating, Foxtail, Giant): 50%
pest or weed control at 125 g/ha (lambsquarters; post-emergence, postemergence, 125 g ai/ha, visual rating, scale 0 (no effect) to 100 (complete control), read-out: Lambsquarters plant response rating): 60%
pest or weed control at 500 g/ha (lambsquarters; post-emergence, postemergence, 500 g ai/ha, visual rating, scale 0 (no effect) to 100 (complete control), read-out: Lambsquarters plant response rating): 70%
pest or weed control at 125 g/ha (lambsquarters; pre-emergence, 125 g ai/ha, 0 = no effect, 100 = complete control, read-out: Lambsquarters plant response rating (0 to 100 scale)): 50%
pest or weed control at 500 g/ha (lambsquarters; pre-emergence, 500 g ai/ha, visual rating, 0 = no effect, 100 = complete control, read-out: Plant response rating, Lambsquarters): 100%
pest or weed control at 125 g/ha (morningglory; post-emergence, postemergence, 125 g ai/ha, visual rating, scale 0 (no effect) to 100 (complete control), read-out: Morningglory plant response rating): 10%
pest or weed control at 500 g/ha (morningglory; post-emergence, postemergence, 500 g ai/ha, visual rating, scale 0 (no effect) to 100 (complete control), read-out: Morningglory plant response rating): 60%
pest or weed control at 125 g/ha (morningglory; pre-emergence, 125 g ai/ha, 0 = no effect, 100 = complete control, read-out: Morningglory plant response rating (0 to 100 scale)): 0%
pest or weed control at 500 g/ha (morningglory; pre-emergence, 500 g ai/ha, visual rating, 0 = no effect, 100 = complete control, read-out: Plant response rating, Morningglory): 20%
pest or weed control at 125 g/ha (pigweed; post-emergence, postemergence, 125 g ai/ha, visual rating, scale 0 (no effect) to 100 (complete control), read-out: Pigweed plant response rating): 60%
pest or weed control at 500 g/ha (pigweed; post-emergence, postemergence, 500 g ai/ha, visual rating, scale 0 (no effect) to 100 (complete control), read-out: Pigweed plant response rating): 70%
pest or weed control at 125 g/ha (pigweed; pre-emergence, 125 g ai/ha, 0 = no effect, 100 = complete control, read-out: Pigweed plant response rating (0 to 100 scale)): 30%
pest or weed control at 500 g/ha (pigweed; pre-emergence, 500 g ai/ha, visual rating, 0 = no effect, 100 = complete control, read-out: Plant response rating, Pigweed): 90%
pest or weed control at 125 g/ha (velvetleaf; post-emergence, postemergence, 125 g ai/ha, visual rating, scale 0 (no effect) to 100 (complete control), read-out: Velvetleaf plant response rating): 20%
pest or weed control at 500 g/ha (velvetleaf; post-emergence, postemergence, 500 g ai/ha, visual rating, scale 0 (no effect) to 100 (complete control), read-out: Velvetleaf plant response rating): 50%
pest or weed control at 125 g/ha (velvetleaf; pre-emergence, 125 g ai/ha, 0 = no effect, 100 = complete control, read-out: Velvetleaf plant response rating (0 to 100 scale)): 20%
pest or weed control at 500 g/ha (velvetleaf; pre-emergence, 500 g ai/ha, visual rating, 0 = no effect, 100 = complete control, read-out: Plant response rating, Velvetleaf): 80%
pest or weed control at 125 g/ha (blackgrass; Alopecurus myosuroides, post-emergence, 336 h, 125 g ai/ha, visual rating, scale 0 (no effect) to 100 (complete control), read-out: Blackgrass plant response rating): 0%
pest or weed control at 500 g/ha (blackgrass; Alopecurus myosuroides, post-emergence, 336 h, 500 g ai/ha, visual rating, scale 0 (no effect) to 100 (complete control), read-out: Blackgrass plant response rating): 10%
plant injury at 125 g/ha (wheat; Triticum aestivum, post-emergence, 336 h, 125 g ai/ha, visual rating, scale 0 (no effect) to 100 (complete control), read-out: Wheat plant response rating): 10%
plant injury at 500 g/ha (wheat; Triticum aestivum, post-emergence, 336 h, 500 g ai/ha, visual rating, scale 0 (no effect) to 100 (complete control), read-out: Wheat plant response rating): 20%
pest or weed control at 125 g/ha (wild oat; Avena fatua, post-emergence, 336 h, 125 g ai/ha, visual rating, scale 0 (no effect) to 100 (complete control), read-out: Oat, Wild plant response rating): 20%
pest or weed control at 500 g/ha (wild oat; Avena fatua, post-emergence, 336 h, 500 g ai/ha, visual rating, scale 0 (no effect) to 100 (complete control), read-out: Oat, Wild plant response rating): 20%
plant injury at 1000 g/ha (rice; Oryza sativa, 336 h, read-out: Rice plant response rating): 70%
pest or weed control at 1000 g/ha ([2]; Cyperus difformis, 336 h, read-out: Sedge, Umbrella plant response rating): 80%
pest or weed control at 1000 g/ha (ducksalad; Heteranthera limosa, 336 h, read-out: Ducksalad plant response rating): 90%
pest or weed control at 1000 g/ha (barnyardgrass [3]; Echinochloa crus-galli, 336 h, read-out: Barnyardgrass plant response rating): 80%

CCn1nc(C(C)(C)C)cc1C(=O)Nc1cccc(OC(C)C)c1 [Compound 273]
Barnyardgrass plant response rating (0 to 100 scale) (barnyardgrass [1]; [4]): 30
Plant response rating, Barnyardgrass (barnyardgrass [1]; [5]): 90
Barnyardgrass plant response rating (barnyardgrass [1]; [6]): 20
Barnyardgrass plant response rating (barnyardgrass [1]; [7]): 70
Surinam Grass plant response rating (0 to 100 scale) (Surinam grass; [4]): 20
Plant response rating, Surinam Grass (Surinam grass; [5]): 50
Surinam Grass plant response rating (Surinam grass; [8]): 20
Surinam Grass plant response rating (Surinam grass; [9]): 40
Cocklebur plant response rating (0 to 100 scale) (cocklebur; [4]): 0
Plant response rating, Cocklebur (cocklebur; [5]): 0
Cocklebur plant response rating (cocklebur; [8]): 20
Cocklebur plant response rating (cocklebur; [9]): 80
Foxtail, Giant plant response rating (0 to 100 scale) (giant foxtail; [4]): 50
Plant response rating, Foxtail, Giant (giant foxtail; [5]): 90
Foxtail, Giant plant response rating (giant foxtail; [8]): 10
Foxtail, Giant plant response rating (giant foxtail; [9]): 20
Lambsquarters plant response rating (0 to 100 scale) (lambsquarters; [4]): 70
Plant response rating, Lambsquarters (lambsquarters; [5]): 100
Lambsquarters plant response rating (lambsquarters; [8]): 60
Lambsquarters plant response rating (lambsquarters; [9]): 90
Morningglory plant response rating (0 to 100 scale) (morningglory; [4]): 0
Plant response rating, Morningglory (morningglory; [5]): 10
Morningglory plant response rating (morningglory; [8]): 20
Morningglory plant response rating (morningglory; [9]): 70
Pigweed plant response rating (0 to 100 scale) (pigweed; [4]): 70
Plant response rating, Pigweed (pigweed; [5]): 100
Pigweed plant response rating (pigweed; [8]): 80
Pigweed plant response rating (pigweed; [9]): 90
Velvetleaf plant response rating (0 to 100 scale) (velvetleaf; [4]): 10
Plant response rating, Velvetleaf (velvetleaf; [5]): 40
Velvetleaf plant response rating (velvetleaf; [8]): 40
Velvetleaf plant response rating (velvetleaf; [9]): 70
Blackgrass plant response rating (blackgrass; [6]): 50
Blackgrass plant response rating (blackgrass; [7]): 70
Wheat plant response rating (wheat; [6]): 30
Wheat plant response rating (wheat; [7]): 40
Oat, Wild plant response rating (wild oat; [6]): 30
Oat, Wild plant response rating (wild oat; [7]): 50
Rice plant response rating (rice): 40
Sedge, Umbrella plant response rating [2]: 80
Ducksalad plant response rating (ducksalad): 90
Barnyardgrass plant response rating (barnyardgrass [3]): 60
